Assay [1] deals with CDK8 (Homo sapiens, UniProt P49336). The experiment in a line: LanthaScreen europium kinase binding assay (FRET displacement), CDK8.
Assay [2] deals with CDK19/CycC (Homo sapiens, UniProt Q9BWU1). The experiment in a line: LanthaScreen europium kinase binding assay (FRET displacement), CDK19. To be noted: for pIC50: his-tagged CDK19/CycC 5 nM, tracer 10 nM, 3 h incubation; for CDK19 Selectivity: CDK19/CDK8 selectivity based on IC50 values. In short, it runs like this: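 His-tagged CDK19/CycC (5 nM) preincubated 30 min with 10 nM Alexa Fluor 665 ATP-site tracer, 2 nM biotin anti-his antibody and 2 nM europium-streptavidin, then titrated with compound (10^−4.5 to 10^−8 M). TR-FRET (ex 317, em 620/665 nm) read after 3 h at room temperature; duplicates, three independent runs, DMSO-normalized IC50.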

pIC50: −log10 of the molar value. Where only a bound is given, the exact number is not on record here.

CDK19/CycC, sequence (Q9BWU1 whole entry): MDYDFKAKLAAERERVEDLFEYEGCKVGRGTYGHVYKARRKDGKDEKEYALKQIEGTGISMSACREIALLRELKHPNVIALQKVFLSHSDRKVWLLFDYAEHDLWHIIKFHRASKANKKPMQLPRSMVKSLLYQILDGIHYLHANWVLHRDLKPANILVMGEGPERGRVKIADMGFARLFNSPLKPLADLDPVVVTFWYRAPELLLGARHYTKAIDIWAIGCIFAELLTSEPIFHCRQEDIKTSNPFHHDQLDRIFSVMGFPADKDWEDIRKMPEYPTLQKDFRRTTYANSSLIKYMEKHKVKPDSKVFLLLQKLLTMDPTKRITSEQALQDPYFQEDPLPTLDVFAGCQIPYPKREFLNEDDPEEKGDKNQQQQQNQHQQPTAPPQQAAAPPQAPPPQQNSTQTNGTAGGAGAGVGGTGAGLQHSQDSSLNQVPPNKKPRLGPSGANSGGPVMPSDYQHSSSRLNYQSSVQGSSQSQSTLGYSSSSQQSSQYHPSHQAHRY
CDK19/CycC, sequence (P24863 whole entry partner): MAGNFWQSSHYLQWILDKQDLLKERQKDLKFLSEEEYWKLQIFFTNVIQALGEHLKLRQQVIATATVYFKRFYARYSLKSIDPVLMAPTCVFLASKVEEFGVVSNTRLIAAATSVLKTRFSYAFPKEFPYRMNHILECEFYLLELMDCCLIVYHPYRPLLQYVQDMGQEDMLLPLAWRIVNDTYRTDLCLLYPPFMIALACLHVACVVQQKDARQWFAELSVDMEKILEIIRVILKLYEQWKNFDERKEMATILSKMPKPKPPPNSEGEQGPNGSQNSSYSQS
CDK8, sequence (P49336 whole entry): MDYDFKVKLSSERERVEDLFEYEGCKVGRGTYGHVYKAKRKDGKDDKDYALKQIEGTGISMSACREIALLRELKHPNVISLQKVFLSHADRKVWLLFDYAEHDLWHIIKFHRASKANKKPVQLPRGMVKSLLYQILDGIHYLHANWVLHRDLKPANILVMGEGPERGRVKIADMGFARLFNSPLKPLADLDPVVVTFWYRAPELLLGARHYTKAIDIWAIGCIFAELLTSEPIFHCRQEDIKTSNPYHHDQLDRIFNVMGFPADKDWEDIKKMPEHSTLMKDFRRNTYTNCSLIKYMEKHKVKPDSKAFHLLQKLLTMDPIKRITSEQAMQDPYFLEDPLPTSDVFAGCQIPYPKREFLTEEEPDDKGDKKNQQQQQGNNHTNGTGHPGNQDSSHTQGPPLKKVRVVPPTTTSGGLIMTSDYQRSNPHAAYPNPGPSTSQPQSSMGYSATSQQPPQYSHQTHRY
CDK8, sequence (P24863 whole entry partner): as the sequence (P24863 whole entry partner) above

Take `Fc1ccc(Nc2ncc(Nc3ccncc3)cn2)cc1` [Compound A7]: the pIC50 is 4.85 in assay [1] and 5.00 in assay [2].

On to `COc1cc(N2CCN(C)CC2)ccc1Nc1ncc(Nc2ccncc2)cn1` [Compound A38], for which the pIC50 in assay [1] and in assay [2] was 5.00 each time.

In turn, `Cc1nc(Nc2ccc(CC(C)C)cc2)ncc1Nc1ccncc1C(F)(F)F` [Compound A166] showed a pIC50 in assay [1] of 8.30. Further, in assay [2], the “CDK19 Selectivity” value worked out at 1 and the pIC50 was 8.30.

As to `Cc1cc(Nc2cnc(Nc3ccc(CC(C)C)cc3)nc2)c(F)cn1` [Compound A174], the pIC50 in assay [1] was 7.48. Further, in assay [2], the “CDK19 Selectivity” value was 4 and the pIC50 is 8.15.

`COc1cnccc1Nc1cnc(Nc2ccc(CC(C)C)cc2F)nc1` [Compound A61] had a pIC50 in assay [1] of 8.15. Further, in assay [2], the “CDK19 Selectivity” value is reported as 1 and the negative-log IC50 (pIC50) is 8.12.

Consider `CC(C)Cc1ccc(Nc2ncc(Nc3ccncc3C(F)(F)F)cn2)cc1` [Compound A154], for which, in assay [1], the pIC50 is 8.52. For the same compound, in assay [2], the “CDK19 Selectivity” value stood at 1 and the pIC50 was 8.52.

Turning to `CC(C)Cc1ccc(Nc2ncc(Nc3ccncc3OC3CCCC3(C)C)cn2)cc1` (stereo not shown) [Compound A157], in assay [1], the pIC50 is 7.19. For the same compound, in assay [2], the “CDK19 Selectivity” value worked out at 1 and the pIC50 is 7.17.

With `CC(C)Cc1ccc(Nc2ncc(Nc3ccncc3OC3CCCNC3)cn2)cc1` (stereo not shown) [Compound A55], the pIC50 in assay [1] was 7.36. Also, in assay [2], the “CDK19 Selectivity” value turned out to be 1.1 and the pIC50 was 7.40.

As to `Cc1cnccc1Nc1cnc(Nc2ccc(OC(C)C)cc2)nc1` [Compound A160], the pIC50 in assay [1] is 7.02. In addition, in assay [2], the “CDK19 Selectivity” value turned out to be 3 and the pIC50 is 7.48.

In turn, `Cc1cnccc1Nc1cnc(Nc2ccc(CC(C)C)cc2)nc1C` [Compound A22] showed a pIC50 in assay [1] of 7.51. For the same compound, in assay [2], the “CDK19 Selectivity” value was 1.3 and the pIC50 was 7.62.

Take `CC(C)Cc1ccc(Nc2ncc(-c3cc[nH]c(=O)c3)cn2)cc1` [Compound A141]: the pIC50 in assay [1] and in assay [2] was 5.00 in each case. Further, the “CDK19 Selectivity” value in assay [2] worked out at 1.

For the compound `FC(F)C(F)(F)Oc1ccc(Nc2ncc(Nc3ccncc3OC3CCCC3)cn2)cc1` [Compound A67], the pIC50 in assay [1] and in assay [2] was 6.97 in each case. In addition, the “CDK19 Selectivity” value in assay [2] was 1.

`CC(C)Cc1ccc(Nc2ccc(-c3ccccc3)cn2)cc1` [Compound A76] showed a pIC50 in assay [1] of 5.29. Besides, in assay [2], the “CDK19 Selectivity” value came out at 3 and the pIC50 was 5.76.

On to `COc1cc(CC(C)C)ccc1Nc1ncc(C(=O)c2ccncc2)cn1` [Compound A131], for which the values for the pIC50 in assay [1] and in assay [2] were 8.00 and 8.24, respectively. Further, the “CDK19 Selectivity” value in assay [2] is 1.8.

For `CC(C)Cc1ccc(Nc2ncc(S(=O)(=O)c3ccncc3)cn2)cc1` [Compound A152], the pIC50 is 5.33 in assay [1] and 5.97 in assay [2].

With `CC(C)Cc1ccc(Nc2ncc(Nc3ccncc3C(=O)NC3CCCC3)cn2)cc1` [Compound A146], the pIC50 in assay [1] is 6.75; in assay [2], 6.66. Besides, the “CDK19 Selectivity” value in assay [2] is recorded as 1.

Take `CC(C)Cc1ccc(Nc2ncc(Nc3ccnc(C(C)C)c3)cn2)cc1` [Compound A46]: the negative logarithm of the IC50 (pIC50) in assay [1] is 6.39. In addition, in assay [2], the “CDK19 Selectivity” value is 4.6 and the pIC50 is 7.06.

With `Cc1cncc(C)c1Nc1cnc(Nc2ccc(CC(C)C)cc2)nc1` [Compound A66], in assay [1], the pIC50 was 8.24. Also, in assay [2], the “CDK19 Selectivity” value was determined as 1.2 and the pIC50 was 8.34.

Consider `CC(C)Cc1ccc(Nc2ncc(C(C)(O)c3ccncc3)cn2)cc1` (stereo not shown) [Compound A167], for which, in assay [1], the pIC50 is 6.21. For the same compound, in assay [2], the “CDK19 Selectivity” value was 4 and the pIC50 was 6.81.

Turning to `CC(C)Oc1ccc(Nc2ncc(Nc3ccncc3C(F)(F)F)cn2)cc1` [Compound A177], the pIC50 was 8.52 in assay [1] and not below 8.60 in assay [2].

Consider `CC(C)Cc1ccc(Nc2ncc(Nc3ccncc3-c3cnn(C4CC4)c3)cn2)cc1` [Compound A158], for which the values for the pIC50 in assay [1] and in assay [2] were 7.80 and 7.62, respectively.

As to `Fc1ccc(Nc2ccc(Nc3ccncc3)cn2)cc1` [Compound A84], the pIC50 in assay [1] and in assay [2] was 5.00 each time.

`O=C(c1ccncc1)c1cnc(Nc2ccc(F)cc2)nc1` [Compound A69]: the pIC50 in assay [1] was 5.57. Besides, in assay [2], the “CDK19 Selectivity” value is 1.9 and the pIC50 was 5.85.

With `CC(C)Cc1ccc(Nc2ncc(Oc3ccncc3)cn2)cc1` [Compound A143], the pIC50 in assay [1] is 5.00. In addition, in assay [2], the “CDK19 Selectivity” value was 3 and the pIC50 is 5.52.

In the case of `CC(C)Cc1ccc(Nc2ncc(C(=O)c3ccncc3F)cn2)cc1` [Compound A116], the pIC50 in assay [1] was 8.39. Also, in assay [2], the “CDK19 Selectivity” value amounted to 1.9 and the pIC50 is not below 8.60.

In assay [1], `CC(C)Cc1ccc(Nc2ncc(-c3cccc(-c4ccncc4)c3)cn2)cc1` [Compound A155] showed a pIC50 of 7.72. In assay [2], the “CDK19 Selectivity” value amounted to 3 and the pIC50 was 8.22.

With `CC(C)Cc1ccc(Nc2ncc(Nc3ccncc3C#Cc3ccccc3)cn2)cc1` [Compound A156], the pIC50 in assay [1] was 6.61; in assay [2] it was 7.27. The “CDK19 Selectivity” value in assay [2] was determined as 5.

Regarding `CC(C)Cc1ccc(Nc2ccc(-c3cccnc3)cn2)cc1` [Compound A82], the figures for the pIC50 in assay [1] and in assay [2] were 6.71 and 6.88, respectively. Moreover, in assay [2], the “CDK19 Selectivity” value is reported as 1.5.

Turning to `FC(F)(F)c1cc(Nc2ncc(Nc3ccncc3)cn2)cc(C(F)(F)F)c1` [Compound A44], the figures for the pIC50 in assay [1] and in assay [2] were 5.20 and 5.32, respectively. In assay [2], the “CDK19 Selectivity” value was determined as 1.

`CC(C)Cc1cccc(Nc2ncc(Nc3cccnc3)cn2)c1` [Compound A31]: the pIC50 in assay [1] was 5.00; in assay [2], 5.04.

Take `CC(C)Cc1ccc(Nc2ncc(C(=O)Nc3ccncc3)cn2)cc1` [Compound A49, 2-((4-isobutylphenyl)amino)-N-(pyridin-4-yl)pyrimidine-5-carboxamide]: the pIC50 in assay [1] is 5.03; in assay [2], 5.60. For the same compound, the “CDK19 Selectivity” value in assay [2] is 3.9.

Compound `c1cc(Nc2cnc(Nc3ccc(C4COC4)cc3)nc2)c(OC2CCCC2)cn1` [Compound A2] gave a pIC50 in assay [1] of 7.85. In assay [2], the “CDK19 Selectivity” value is listed as 1.2 and the pIC50 is 7.96.

In the case of `CC(C)Cc1ccc(Nc2ncc(-c3ccc(C#N)cc3)cn2)cc1` [Compound A89], the pIC50 in assay [1] and in assay [2] was 5.00 each time.

Regarding `CC(C)Cc1ccc(Nc2ncc(Nc3ccncc3Cl)cn2)c(F)c1` [Compound A58], the pIC50 in assay [1] is 8.55. In assay [2], the “CDK19 Selectivity” value turned out to be 2 and the pIC50 is not below 8.60.

`CC(C)Cc1cccc(Nc2ncc(Nc3ccnc(C(C)C)c3)cn2)c1` [Compound A34] gave a pIC50 in assay [1] of 5.35. For the same compound, in assay [2], the “CDK19 Selectivity” value was determined as 5 and the pIC50 is 6.04.

As for `CC(C)Cc1ccc(Nc2ncc(Nc3ccncc3C3CC3)cn2)cc1` [Compound A164], the pIC50 is 6.65 in assay [1] and 7.12 in assay [2]. The “CDK19 Selectivity” value in assay [2] was determined as 3.

In the case of `CC(C)Cc1ccc(Nc2ccc(C(=O)c3cccnc3)cn2)cc1` [Compound A200], the pIC50 in assay [1] was 5.62; in assay [2], 5.87. Also, the “CDK19 Selectivity” value in assay [2] stood at 2.

In turn, `CC(C)Cc1ccc(Nc2ncc(Nc3ccncc3OC3CCCCC3)cn2)cc1` [Compound A54] showed a pIC50 in assay [1] of 7.46. Also, in assay [2], the “CDK19 Selectivity” value stood at 0.8 and the pIC50 was 7.35.

Turning to `Cc1ccc2nccc(Nc3cnc(Nc4ccc(CC(C)C)cc4)nc3)c2c1` [Compound A13], the pIC50 was 7.25 in assay [1] and 7.62 in assay [2]. Also, the “CDK19 Selectivity” value in assay [2] was 2.4.

In assay [1], `Cc1cc(-c2cnc(Nc3ccc(CC(C)C)cc3)nc2)ccc1C#N` [Compound A91] showed a pIC50 of 5.00. In addition, in assay [2], the “CDK19 Selectivity” value is on record as 12 and the pIC50 is 6.10.

For the compound `c1cc(Nc2cnc(Nc3ccc(C4CC4)cc3)nc2)ccn1` [Compound A16], the figures for the pIC50 in assay [1] and in assay [2] were 6.43 and 6.88, respectively. Further, the “CDK19 Selectivity” value in assay [2] amounted to 2.8.

The compound `CCCc1ccc(Nc2ncc(Nc3ccncc3)cn2)cc1` [Compound A14] showed a pIC50 in assay [1] of 7.02. Moreover, in assay [2], the “CDK19 Selectivity” value was 3.3 and the negative-log IC50 (pIC50) was 7.54.

The compound `Cc1cc(C(=O)c2cnc(Nc3ccc(CC(C)C)cc3)nc2)ccn1` [Compound A71] had a pIC50 in assay [1] of 8.22. For the same compound, in assay [2], the “CDK19 Selectivity” value is 3 and the pIC50 was not below 8.60.

`O=C(c1ccncc1)c1ccc(Nc2ccc(F)cc2)nc1` [Compound A75]: in assay [1], the pIC50 was 5.94. In addition, in assay [2], the “CDK19 Selectivity” value is given as 3.9 and the pIC50 is 6.53.

As to `c1cc(Nc2cnc(Nc3ccc4c(c3)CCCC4)nc2)ccn1` [Compound A37], the pIC50 in assay [1] was 7.08. In assay [2], the “CDK19 Selectivity” value was 2 and the pIC50 is 7.39.

Source of the values: US20240351996A1, “CDK19-SELECTIVE INHIBITORS, AND METHODS OF USE THEREOF” (CZ BIOHUB SF, LLC, priority 2022, published 2024).
